Structures are written as SMILES.

The source of these data is publication PMC8320996, “Negative regulation of melatonin secretion by melatonin receptors in ovine pinealocytes” (PLoS ONE, 2021).

The experiment deals with T1, MT1.
T1 construct: gene MTNR1A; native receptors in primary ovine pinealocytes (MT1 and MT2 not resolved)
Kind of experiment: saturation radioligand binding on primary ovine pinealocytes, Scatchard analysis. The format is cell-based, Ovis aries.

With `COc1ccc2[nH]c(I)c(CCNC(C)=O)c2c1` [2-[^125I]-MLT], binding was put at a Kd of 2.24 ± 1.1 nM.
